US7563774B2, “Combination of FBPase inhibitors and antidiabetic agents useful for the treatment of diabetes” (Metabasis Therapeutics, Inc., priority 2000, dated 2009)
Blank lines part the entries; values can stand above or below the molecule they belong to.

Experiments:
rat liver FBPase = biological target: T1, rat liver FBPase (Rattus norvegicus, UniProt P19112); experiment: Inhibition of rat liver FBPase (Example B); format: biochemical
T1 construct: made in house; host or cells: E. coli BL21
T1 sequence (P19112 2-363 limits assumed): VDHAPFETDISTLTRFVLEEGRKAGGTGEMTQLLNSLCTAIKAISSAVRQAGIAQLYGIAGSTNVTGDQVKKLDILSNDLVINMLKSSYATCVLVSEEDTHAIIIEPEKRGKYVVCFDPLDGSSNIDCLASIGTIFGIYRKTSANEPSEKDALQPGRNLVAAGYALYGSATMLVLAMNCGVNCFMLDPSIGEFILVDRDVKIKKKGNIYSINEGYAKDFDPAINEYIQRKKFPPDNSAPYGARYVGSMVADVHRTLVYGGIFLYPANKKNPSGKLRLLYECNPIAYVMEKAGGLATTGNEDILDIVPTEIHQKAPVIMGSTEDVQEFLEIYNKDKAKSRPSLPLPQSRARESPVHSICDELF

mouse liver FBPase = biological target: T2, mouse liver FBPase (Mus musculus, UniProt Q9QXD6); experiment: Inhibition of mouse liver FBPase (Example B); format: biochemical
T2 construct: This partially purified fraction was used for enzyme assays; from tissue; host or cells: mouse liver (45-75% ammonium sulfate fraction of homogenate)
T2 sequence (Q9QXD6 2-338 limits assumed): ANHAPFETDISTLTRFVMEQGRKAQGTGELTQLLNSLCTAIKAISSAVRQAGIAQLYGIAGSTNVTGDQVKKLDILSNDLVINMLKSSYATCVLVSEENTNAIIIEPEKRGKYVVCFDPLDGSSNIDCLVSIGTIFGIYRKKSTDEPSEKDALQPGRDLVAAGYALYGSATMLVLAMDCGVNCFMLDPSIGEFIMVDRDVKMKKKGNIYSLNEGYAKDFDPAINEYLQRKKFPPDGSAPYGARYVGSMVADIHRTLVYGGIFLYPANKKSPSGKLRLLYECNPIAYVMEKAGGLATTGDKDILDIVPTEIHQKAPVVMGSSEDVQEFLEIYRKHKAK

human liver FBPase = biological target: T3, human liver FBPase (Homo sapiens, UniProt P09467); experiment: Inhibition of human liver FBPase (Example A); format: biochemical
T3 construct: made in house; host or cells: E. coli BL21
T3 sequence (P09467 2-338 limits assumed): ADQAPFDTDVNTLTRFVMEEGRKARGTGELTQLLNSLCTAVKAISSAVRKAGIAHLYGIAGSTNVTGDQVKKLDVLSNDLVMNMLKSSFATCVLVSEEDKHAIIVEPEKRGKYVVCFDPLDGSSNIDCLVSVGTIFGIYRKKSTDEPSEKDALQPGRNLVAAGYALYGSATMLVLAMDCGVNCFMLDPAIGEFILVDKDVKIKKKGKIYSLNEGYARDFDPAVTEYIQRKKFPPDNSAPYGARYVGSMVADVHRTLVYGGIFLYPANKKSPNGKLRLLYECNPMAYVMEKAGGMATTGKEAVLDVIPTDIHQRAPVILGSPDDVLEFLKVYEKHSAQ

Db/db or ob/ob mice = experiment: Acute combination treatment of a glycogen phosphorylase inhibitor and an FBPase inhibitor in db/db or ob/ob mice (Example FF); format: in vivo, mouse; conditions: 0.5 to 300 mg/kg p.o.
Experimental: Db/db or ob/ob mice are purchased at 5 weeks of age from Jackson Laboratories (Bar Harbor, Me.). The mice are maintained under standard vivarium conditions (24-26° C., 12-hour light cycle, 12-hour dark cycle) and receive standard chow and water ad libitum. At more than 10 weeks of age, animals are divided into 4 groups (n=5 to 7/group). […] Food is made available after treatment. Blood glucose levels in tail vein samples are measured by means of standard manual or automated methods.

db/db mice = experiment: Glucose lowering in the db/db mouse (Example V); format: in vivo; conditions: last treatment day (day 18)
Experimental: Treatment was for 18 days. […] Differences between groups were evaluated by the Student's t-test. Results are considered significant with p<0.05.

C57BL/KsJ db/db mice [1] = experiment: Acute combination treatment of insulin and Compound G in db/db mice (Example Z); format: in vivo, mouse
Experimental: Male C57BL/KsJ db/db mice were purchased at 5 weeks of age from Clea Japan, Inc. (Tokyo, Japan). The mice were maintained under standard vivarium conditions (24-26° C., 12-hour light cycle, 12-hour dark cycle) and received standard chow and water ad libitum. At 20 weeks of age, animals were divided into 4 groups (n=6/group). The treatment groups were control, compound G, insulin, and the combination of compound G and insulin. […] Insulin (human recombinant insulin, Penfill R300, Novo Nordisk, Denmark) was injected subcutaneously at a dose of 1.5 U/kg. Food was removed after treatment. Blood glucose levels in tail vein samples were measured by means of a Glucoloader-F, an automatic glucose analyzer, (A&T Co., Ltd., Tokyo, Japan).

C57BL/KsJ db/db mice [2] = experiment: Chronic combination treatment of insulin and Compound G in db/db mice (Example AA); format: in vivo, mouse; conditions: db/db mice, 3 weeks
Experimental: Male C57BL/KsJ db/db mice were purchased at 5 weeks of age from Clea Japan, Inc. (Tokyo, Japan). The mice were maintained under standard vivarium conditions (24-26° C., 12-hour light cycle, 12-hour dark cycle) and received standard chow and water ad libitum. At 16 weeks of age, animals were divided into 2 groups (n=5 or 9-10/group). Both groups were subcutaneously injected with human recombinant insulin (Penfill N300, Novo Nordisk, Denmark) on a daily basis to adjust plasma glucose levels to the target range of 250 to 300 mg/dL.

Sprague Dawley rats = experiment: Oral glucose lowering in overnight fasted Sprague Dawley rats (Example G); format: in vivo, rat; conditions: 4 h
Experimental: Oral efficacy of Compound J was assessed in overnight fasted Sprague Dawley rats. […] At 1.5 h or 4 h post drug administration, a blood sample was taken from the tail vein and analyzed for blood glucose by means of an automated glucose analyzer (HemoCue, HemoCue Inc, Mission Viejo, Calif.).

[3] = tested on: Zucker Diabetic Fatty (ZDF) rat; experiment: Glucose lowering in the ZDF rat (Example W); format: in vivo
From the text: The Zucker Diabetic Fatty (ZDF) rat is widely used as a model for human NIDDM as the progression of the disease in these rodents is similar to that described for human […] patients. […] Clark J B, Palmer C J (1982) Diabetes 30: 126A Terrettaz J, Jeanrenaud B (1983) Endocrinology 112: 1346-1351.

[4] = tested on: streptozotocin-induced diabetic rat; experiment: Chronic combination treatment of a fatty acid oxidation inhibitor and an FBPase inhibitor in the streptozotocin-induced diabetic rat (Example JJ); format: in vivo; conditions: etomoxir 3-300 mg/kg s.c., Compound J 0.2% w/w food admixture, 2-6 weeks
Experimental: Male Sprague-Dawley rats (Charles Rivers Laboratories) weighing approximately 120 g at the beginning of the study are housed under standard vivarium conditions and fed standard chow (Purina 5001). Rats are rendered diabetic by injection of 55 mg/kg body weight of streptozotocin (STZ) in citrate buffer, pH 4.7. […] Drug treatment is continued for 2-6 weeks. Blood glucose levels are monitored at regular intervals during the treatment period. At the end of the study, rats are anesthetized and instrumented with jugular vein and carotid artery catheters. Hepatic glucose production is measured using a primed constant infusion of (^3H)-6-glucose. Blood samples are taken after two hours, and the specific activity of glucose measured by […]. Hepatic glucose production rater are calculated by standard methods.

[5] = tested on: streptozotocin diabetic Sprague Dawley rats; experiment: Acute combination treatment of an FBPase inhibitor and an amylin agonist in streptozotocin diabetic rats (Example HH); format: in vivo, rat; conditions: pramlintide 10 micrograms i.v., Compound J 300 mg/kg p.o.
Experimental: Animals are then gavaged with 1 mL 50% glucose, and allowed ad libitum access to food. Blood glucose is collected from the tail vein at 0, 30, 60, 120, 180, and 240 minutes following glucose administration.

- IC50 (rat liver FBPase): 25 µM
- IC50 (mouse liver FBPase): 15 µM
- IC50 (human liver FBPase): 1.3 µM
Structure (SMILES): Nc1ncnc2c1ncn2[C@@H]1O[C@H](COP(=O)(O)O)[C@@H](O)[C@H]1O [AMP]

Structure (SMILES): CN(C)C(=O)[C@H](O)[C@H](Cc1ccccc1)NC(=O)c1cc2cc(Cl)ccc2[nH]1 [CP-91149, reference compound]
- blood glucose lowering (Db/db or ob/ob mice): significantly lower blood glucose relative to control values

Structure (SMILES): CSc1sc(N)nc1-c1ccc(P(=O)(O)O)o1 [Compound G, 2-Amino-5-methylthio-4-[2-(5-phosphono)furanyl]thiazole]
- blood glucose levels versus control group (db/db mice): significantly lower than those in the control group
- Plasma Glucose, % of pretreatment values (C57BL/KsJ db/db mice [1]; after 1 hour): (84.2 +/− 1.9) %
- Plasma Glucose (C57BL/KsJ db/db mice [1]; after 1 hour, Compound G 200 mg/kg p.o., insulin 1.5 U/kg s.c.): 650.8 ± 14.8 mg/dL
- Plasma Glucose (C57BL/KsJ db/db mice [1]; after 4 hours): 373.7 ± 24.7 mg/dL
- Plasma Glucose, % of pretreatment values (C57BL/KsJ db/db mice [1]; after 4 hours): (48.6 +/− 4.0) %
- Plasma Glucose (C57BL/KsJ db/db mice [1]; after […]): 459.7 ± 11.5 mg/dL
- Plasma Glucose, % of pretreatment values (C57BL/KsJ db/db mice [1]; after […]): (59.6 +/− 2.3) %
- Plasma Glucose (C57BL/KsJ db/db mice [1]; before (0 hour)): 774.0 ± 18.3 mg/dL
- Plasma Glucose, % of pretreatment values (C57BL/KsJ db/db mice [1]; before (0 hour)): (100.0 +/− 0.0) %
- plasma glucose lowering (C57BL/KsJ db/db mice [1]; db/db mice, acute): progressively decreased plasma glucose levels
- insulin dose required to lower plasma glucose to the target range (C57BL/KsJ db/db mice [2]): remarkably decreased the insulin dose required
- Glucose Lowering, % (Sprague Dawley rats; Compound G 10 mg/kg p.o.): 48%
- Glucose Lowering, % (Sprague Dawley rats; Compound G 30 mg/kg p.o.): >70%
- glycemic control [3]: significantly improved glycemic control
- Blood Glucose ([3]; 0.2% food admixture, Day 14): 530 ± 48 mg/dL

Structure (SMILES): CCOC(=O)[C@@]1(CCCCCCOc2ccc(Cl)cc2)CO1 [etomoxir, reference compound]
- Blood Glucose [4]: lowered significantly

Structure (SMILES): CC[C@H](C)[C@H](NC(=O)[C@@H]1CCCN1C(=O)CNC(=O)[C@H](Cc1ccccc1)NC(=O)[C@H](CC(N)=O)NC(=O)[C@H](CC(N)=O)NC(=O)[C@H](CO)NC(=O)[C@H](CO)NC(=O)[C@H](Cc1c[nH]cn1)NC(=O)[C@@H](NC(=O)[C@H](CC(C)C)NC(=O)[C@H](Cc1ccccc1)NC(=O)[C@H](CC(N)=O)NC(=O)[C@H](C)NC(=O)[C@H](CC(C)C)NC(=O)[C@H](CCCNC(=N)N)NC(=O)[C@H](CCC(N)=O)NC(=O)[C@@H](NC(=O)[C@H](C)NC(=O)[C@@H]1CSSC[C@H](NC(=O)[C@@H](N)CCCCN)C(=O)N[C@@H](CC(N)=O)C(=O)N[C@@H]([C@@H](C)O)C(=O)N[C@@H](C)C(=O)N[C@@H]([C@@H](C)O)C(=O)N1)[C@@H](C)O)C(C)C)C(=O)N[C@@H](CC(C)C)C(=O)N1CCC[C@H]1C(=O)N1CCC[C@H]1C(=O)N[C@H](C(=O)N[C@@H](CC(N)=O)C(=O)N[C@H](C(=O)NCC(=O)N[C@@H](CO)C(=O)N[C@@H](CC(N)=O)C(=O)N[C@H](C(=O)N[C@@H](Cc1ccc(O)cc1)C(N)=O)[C@@H](C)O)C(C)C)[C@@H](C)O [pramlintide, reference compound]
- postprandial glucose excursion [5]: attenuated the postprandial glucose excursion
